Test [1] has as its target T1, human recombinant histamine H1 receptor (Homo sapiens, UniProt P35367).
T1 construct: expressed in transfected cells; host or cells: CHO-K1
The test is described as follows: Histamine H1 radioligand binding ([3H]Pyrilamine). As to conditions: read-out: Histamine H1 Binding (1 μM), percent inhibition of specific binding; compound at 1 μM; 1.2 nM [3H]Pyrilamine. A digest of the protocol: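 Human recombinant H1 receptor expressed in CHO-K1 cells, in 50 mM Tris-HCl pH 7.4 with 2 mM MgCl2, 100 mM NaCl, 250 mM sucrose. Non-specific binding defined with 1 μM pyrilamine; bound [3H]pyrilamine counted after filtration and washing. Values are percent inhibition of specific binding.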

The target of test [2] is T2, human recombinant serotonin (5-Hydroxytryptamine) 5-HT2C receptor (Homo sapiens, UniProt P28335).
T2 construct: expressed in transfected cells; host or cells: CHO-K1
T2 sequence (P28335 33-458): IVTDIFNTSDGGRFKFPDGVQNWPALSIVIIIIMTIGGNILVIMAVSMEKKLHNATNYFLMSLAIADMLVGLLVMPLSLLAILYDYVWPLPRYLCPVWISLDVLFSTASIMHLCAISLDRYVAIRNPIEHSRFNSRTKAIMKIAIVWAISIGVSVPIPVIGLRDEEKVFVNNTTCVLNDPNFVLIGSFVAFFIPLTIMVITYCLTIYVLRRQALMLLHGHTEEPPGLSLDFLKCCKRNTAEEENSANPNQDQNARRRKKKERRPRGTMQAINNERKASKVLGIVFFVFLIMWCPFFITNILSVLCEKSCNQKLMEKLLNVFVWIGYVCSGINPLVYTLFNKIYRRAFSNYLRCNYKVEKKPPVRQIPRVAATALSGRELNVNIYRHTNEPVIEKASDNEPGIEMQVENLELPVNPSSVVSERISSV
In words: Serotonin 5-HT2C radioligand binding ([3H]Mesulergine). As to conditions: compound at 0.1 μM; read-out: Inhibition of ligand binding, Serotonin 5-HT2C (percent inhibition of specific binding). The method, then: Compounds of the invention were incubated with 1 nM [^3H]Mesulergine for 60 min at 25° C. Non-specific binding was estimated in the presence of 1 μM Mianserin. Receptor proteins were filtered and washed, the filters were then counted to determine [^3H]Mesulergine specifically bound.

T1 sequence (P35367 whole entry): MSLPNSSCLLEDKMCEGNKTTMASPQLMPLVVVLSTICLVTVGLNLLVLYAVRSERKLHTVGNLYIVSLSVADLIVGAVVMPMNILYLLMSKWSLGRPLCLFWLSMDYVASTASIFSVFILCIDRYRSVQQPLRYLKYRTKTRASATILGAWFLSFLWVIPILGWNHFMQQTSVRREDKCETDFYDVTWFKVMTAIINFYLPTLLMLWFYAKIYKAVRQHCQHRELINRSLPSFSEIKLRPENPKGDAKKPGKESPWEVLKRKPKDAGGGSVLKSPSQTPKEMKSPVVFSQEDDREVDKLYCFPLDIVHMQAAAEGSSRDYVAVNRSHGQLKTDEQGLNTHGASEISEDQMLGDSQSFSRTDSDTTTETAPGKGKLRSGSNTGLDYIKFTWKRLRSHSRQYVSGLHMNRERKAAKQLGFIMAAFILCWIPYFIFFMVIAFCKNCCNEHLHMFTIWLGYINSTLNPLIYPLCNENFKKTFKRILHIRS

As usually defined, the inhibition is the relative decrease from the control value, in per cent. Regarding `Cc1ccc2c(c1)c1c(n2-c2cscc2-c2cnn(C)c2)CCN(C)C1` [Compound 30], in test [1], the inhibition at 1 µM worked out at 23%. Besides, the inhibition at 0.1 µM in test [2] stood at 84%.
Take `Cc1ccc2c(c1)c1c(n2-c2ccccc2-c2cnc(N(C)C)nc2)CCN(C)C1` [Compound 31]: the inhibition at 1 µM in test [1] was 3%. The inhibition at 0.1 µM in test [2] was 15%.
The like results for `Cc1ccc2c(c1)c1c(n2-c2ccccc2-c2ccnn2C)CCN(C)C1` [Compound 32] were, in that order, 22% and 50%.
In the case of `Cc1ccc2c(c1)c1c(n2-c2cscc2-c2cncc3ccccc23)CCN(C)C1` [Compound 34], the inhibition at 1 µM in test [1] is 6%. Moreover, the inhibition at 0.1 µM in test [2] was determined as 54%.
On the same counts, the results for `Cc1ccc2c(c1)c1c(n2-c2cscc2-c2ccc(F)nc2)CCN(C)C1` [Compound 35] are 3% and 74%.
Regarding `Cc1csc(-c2ccccc2-n2c3c(c4cc(C)ccc42)CN(C)CC3)c1` [Compound 36], the inhibition at 1 µM in test [1] worked out at 16%. In test [2], the inhibition at 0.1 µM was 83%.
On the same counts, the results for `Cc1ccc2c(c1)c1c(n2-c2ccc3cnccc3c2)CCN(C)C1` [Compound 38] are -4% and 88%.
On the same counts, the results for `Cc1ccc2c(c1)c1c(n2-c2cscc2-c2sccc2C)CCN(C)C1` [Compound 39] are 58% and 93%.
For the compound `Cc1ccc2c(c1)c1c(n2-c2cscc2-c2cnc(N(C)C)nc2)CCN(C)C1` [Compound 40], the inhibition at 1 µM in test [1] was 15%. Further, the inhibition at 0.1 µM in test [2] turned out to be 35%.
For the compound `Cc1ccc2c(c1)c1c(n2-c2cscc2-c2cccc3[nH]ncc23)CCN(C)C1` [Compound 41], in test [1], the inhibition at 1 µM is 28%. In test [2], the inhibition at 0.1 µM was 91%.
The like results for `Cc1ccc2c(c1)c1c(n2-c2cccc(-c3cnc(N(C)C)nc3)c2)CCN(C)C1` [Compound 42, 5-(3-(2,8-dimethyl-3,4-dihydro-1H-pyrido[4,3-b]indol-5(2H)-yl)phenyl)-N,N-dimethylpyrimidin-2-amine] were, in that order, 0% and 32%.
The like results for `Cc1ccc2c(c1)c1c(n2-c2cccc(-c3sccc3C)c2)CCN(C)C1` [Compound 43, 2,8-dimethyl-5-(3-(3-methylthiophen-2-yl)phenyl)-2,3,4,5-tetrahydro-1H-pyrido[4,3-b]indole] were, in that order, 26% and 8%.
Take `Cc1ccc2c(c1)c1c(n2-c2cccc(-c3ccc(F)nc3)c2)CCN(C)C1` [Compound 44, 5-(3-(6-fluoropyridin-3-yl)phenyl)-2,8-dimethyl-2,3,4,5-tetrahydro-1H-pyrido[4,3-b]indole]: in test [1], the inhibition at 1 µM was 41%. The inhibition at 0.1 µM in test [2] was 83%.
For `CC(=O)Nc1ccc(-c2cccc(-n3c4c(c5cc(C)ccc53)CN(C)CC4)c2)cn1` [Compound 45, N-(5-(3-(2,8-dimethyl-3,4-dihydro-1H-pyrido[4,3-b]indol-5(2H)-yl)phenyl)pyridin-2-yl)acetamide], the inhibition at 1 µM in test [1] was found to be 8%. Moreover, the inhibition at 0.1 µM in test [2] was 26%.
On to `Cc1ccc2c(c1)c1c(n2-c2cccc(-c3cnn(C)c3)c2)CCN(C)C1` [Compound 46, 2,8-dimethyl-5-(3-(1-methyl-1H-pyrazol-4-yl)phenyl)-2,3,4,5-tetrahydro-1H-pyrido[4,3-b]indole], for which the inhibition at 1 µM in test [1] was 19%. Also, in test [2], the inhibition at 0.1 µM came out at 41%.
On the same counts, the results for `Cc1cc(C)c2c(c1)c1c(n2-c2cccc3ncccc23)CCN(C)C1` [Compound 47] are 42% and 32%.
The like results for `Cc1cc(C)c2c(c1)c1c(n2-c2ccc3ncccc3c2)CCN(C)C1` [Compound 48] were, in that order, 4% and 47%.
On the same counts, the results for `Cc1ccc2c(c1)c1c(n2-c2cscc2-c2ccc(O)nc2)CCN(C)C1` [Compound 49] are 7% and 19%.
Regarding `Cc1ccc2c(c1)c1c(n2-c2cccc(-c3cc4ccccc4s3)c2)CCN(C)C1` [Compound 51, 5-(3-(benzo[b]thiophen-2-yl)phenyl)-2,8-dimethyl-2,3,4,5-tetrahydro-1H-pyrido[4,3-b]indole], the inhibition at 1 µM in test [1] is 36%. Besides, the inhibition at 0.1 µM in test [2] was found to be 55%.
The like results for `Cc1ccc2c(c1)c1c(n2-c2cccc(-c3ccc(O)nc3)c2)CCN(C)C1` [Compound 52, 5-(3-(2,8-dimethyl-3,4-dihydro-1H-pyrido[4,3-b]indol-5(2H)-yl)phenyl)pyridin-2-ol] were, in that order, 14% and 19%.
Turning to `Cc1ccc2c(c1)c1c(n2-c2cccc(-c3ccc4c(ccn4C)c3)c2)CCN(C)C1` [Compound 53, 2,8-dimethyl-5-(3-(1-methyl-1H-indol-5-yl)phenyl)-2,3,4,5-tetrahydro-1H-pyrido[4,3-b]indole], the inhibition at 1 µM in test [1] turned out to be 18%. Besides, the inhibition at 0.1 µM in test [2] is 47%.
The like results for `Cc1ccc2c(c1)c1c(n2-c2cccc(-c3ccc4[nH]cnc4c3)c2)CCN(C)C1` [Compound 54, 5-(3-(1H-benzo[d]imidazol-5-yl)phenyl)-2,8-dimethyl-2,3,4,5-tetrahydro-1H-pyrido[4,3-b]indole] were, in that order, 40% and 21%.
Regarding `CC(=O)Nc1ccc(-c2cscc2-n2c3c(c4cc(C)ccc42)CN(C)CC3)cn1` [Compound 56], the inhibition at 1 µM in test [1] turned out to be 10%. The inhibition at 0.1 µM in test [2] amounted to 38%.
On the same counts, the results for `Cc1cc(C)c2c(c1)c1c(n2-c2cccc(-c3ccncc3)c2)CCN(C)C1` [Compound 57, 2,6,8-trimethyl-5-(3-(pyridin-4-yl)phenyl)-2,3,4,5-tetrahydro-1H-pyrido[4,3-b]indole] are 45% and 28%.
In the case of `Cc1ccc2c(c1)c1c(n2-c2cccc3ccncc23)CCN(C)C1` [Compound 58, 5-(isoquinolin-8-yl)-2,8-dimethyl-2,3,4,5-tetrahydro-1H-pyrido[4,3-b]indole], the inhibition at 1 µM in test [1] was found to be 31%. For the same compound, the inhibition at 0.1 µM in test [2] was determined as 81%.
The like results for `Cc1ccc2c(c1)c1c(n2-c2ccccc2-c2ccc(C)nc2)CCN(C)C1` [Compound 59, 2,8-dimethyl-5-(2-(6-methylpyridin-3-yl)phenyl)-2,3,4,5-tetrahydro-1H-pyrido[4,3-b]indole] were, in that order, 27% and 46%.
Take `Cc1ccc2c(c1)c1c(n2-c2cccc(-c3ccc(C)nc3)c2)CCN(C)C1` [Compound 60, 2,8-dimethyl-5-(3-(6-methylpyridin-3-yl)phenyl)-2,3,4,5-tetrahydro-1H-pyrido[4,3-b]indole]: the inhibition at 1 µM in test [1] was 32%. Further, the inhibition at 0.1 µM in test [2] amounted to 53%.
On the same counts, the results for `Cc1ccc2c(c1)c1c(n2-c2cccc(-c3ccc(F)cc3)c2)CCN(C)C1` [Compound 61, 5-(4′-fluorobiphenyl-3-yl)-2,8-dimethyl-2,3,4,5-tetrahydro-1H-pyrido[4,3-b]indole] are 42% and 81%.
With `Cc1ccc2c(c1)c1c(n2-c2cscc2-c2c(C)noc2C)CCN(C)C1` [Compound 62], the inhibition at 1 µM in test [1] was 27%. For the same compound, the inhibition at 0.1 µM in test [2] was 56%.
For the compound `Cc1csc(-c2cccc(-n3c4c(c5cc(C)ccc53)CN(C)CC4)c2)c1` [Compound No. 63, 2,8-dimethyl-5-(3-(4-methylthiophen-2-yl)phenyl)-2,3,4,5-tetrahydro-1H-pyrido[4,3-b]indole], the inhibition at 1 µM in test [1] came to 31%. For the same compound, the inhibition at 0.1 µM in test [2] stood at 77%.
For `Cc1ccc2c(c1)c1c(n2-c2cccc(-c3ccc(C)s3)c2)CCN(C)C1` [Compound No. 64, 2,8-dimethyl-5-(3-(5-methylthiophen-2-yl)phenyl)-2,3,4,5-tetrahydro-1H-pyrido[4,3-b]indole], the inhibition at 1 µM in test [1] was determined as 23%. Also, in test [2], the inhibition at 0.1 µM was determined as 83%.
The like results for `Cc1ccc2c(c1)c1c(n2-c2cccc(-c3c(C)noc3C)c2)CCN(C)C1` [Compound No. 65, 4-(3-(2,8-dimethyl-3,4-dihydro-1H-pyrido[4,3-b]indol-5(2H)-yl)phenyl)-3,5-dimethylisoxazole] were, in that order, 31% and 57%.
With `Cc1ccc2c(c1)c1c(n2-c2cccc(-c3ccnn3C)c2)CCN(C)C1` [Compound No. 66, 2,8-dimethyl-5-(3-(1-methyl-1H-pyrazol-5-yl)phenyl)-2,3,4,5-tetrahydro-1H-pyrido[4,3-b]indole], the inhibition at 1 µM in test [1] is 43%. Moreover, the inhibition at 0.1 µM in test [2] was found to be 55%.
On the same counts, the results for `Cc1ccc2c(c1)c1c(n2-c2cccc(-c3cncc4ccccc34)c2)CCN(C)C1` [Compound No. 67, 5-(3-(isoquinolin-4-yl)phenyl)-2,8-dimethyl-2,3,4,5-tetrahydro-1H-pyrido[4,3-b]indole] are 32% and 23%.

The record behind these values is patent US9187471B2, “Pyrido [4,3-b] indole and pyrido [3,4-b] indole derivatives and methods of use” (Medivation Technologies, Inc., priority 2010, dated 2015).
